# Measured values as given in PubChem BioAssay AID2060902 (Molecular Pharmacology Branch, DTP, NCI, 2025).
# System: 485368-065-R3-J5-PDC spheroids with HUVEC/MSC, viability
# Experiment: Anticancer human tumor 485368-065-R3-J5-PDC patient-derived pancreatic carcinoma cell line growth inhibition [RAS]
# Conditions: for IC50: curve of first compound; for viability, T/C: stronger effect = lower value
# Summary of the method: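 Tumour cells grown as complex spheroids with HUVEC endothelial cells and mesenchymal stem cells, treated with RAS pathway inhibitor combinations. Each agent spans half-log steps from near clinical Cmax, or 10 microM where Cmax is unknown.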
# [1] = second compound 0.0316 µM, first compound 0.0316 µM
# [2] = second compound 0.0316 µM, first compound 0.1 µM
# [3] = second compound 0.0316 µM, first compound 0.316 µM
# [4] = second compound 0.0316 µM, first compound 1 µM
# [5] = second compound 0.0316 µM, first compound 3.16 µM
# [6] = second compound 0.0316 µM, first compound 10 µM
# [7] = second compound 0.1 µM, first compound 0.0316 µM
# [8] = second compound 0.1 µM, first compound 0.1 µM
# [9] = second compound 0.1 µM, first compound 0.316 µM
# [10] = second compound 0.1 µM, first compound 1 µM
# [11] = second compound 0.1 µM, first compound 3.16 µM
# [12] = second compound 0.1 µM, first compound 10 µM
# [13] = second compound 0.316 µM, first compound 0.0316 µM
# [14] = second compound 0.316 µM, first compound 0.1 µM
# [15] = second compound 0.316 µM, first compound 0.316 µM
# [16] = second compound 0.316 µM, first compound 1 µM
# [17] = second compound 0.316 µM, first compound 3.16 µM
# [18] = second compound 0.316 µM, first compound 10 µM
# [19] = second compound 1 µM, first compound 0.0316 µM
# [20] = second compound 1 µM, first compound 0.1 µM
# [21] = second compound 1 µM, first compound 0.316 µM
# [22] = second compound 1 µM, first compound 1 µM
# [23] = second compound 1 µM, first compound 3.16 µM
# [24] = second compound 1 µM, first compound 10 µM
# [25] = second compound 3.16 µM, first compound 0.0316 µM
# [26] = second compound 3.16 µM, first compound 0.1 µM
# [27] = second compound 3.16 µM, first compound 0.316 µM
# [28] = second compound 3.16 µM, first compound 1 µM
# [29] = second compound 3.16 µM, first compound 3.16 µM
# [30] = second compound 3.16 µM, first compound 10 µM
# [31] = second compound 10 µM, first compound 0.0316 µM
# [32] = second compound 10 µM, first compound 0.1 µM
# [33] = second compound 10 µM, first compound 0.316 µM
# [34] = second compound 10 µM, first compound 1 µM
# [35] = second compound 10 µM, first compound 3.16 µM
# [36] = second compound 10 µM, first compound 10 µM
# 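Also: spheroids exposed to agents for seven days before readout.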
structure (smiles),measurement,setting,value
CC(=O)OC12COC1CC(O)C1(C)C(=O)C(O)C3=C(C)C(OC(=O)C(O)C(NC(=O)OC(C)(C)C)c4ccccc4)CC(O)(C(OC(=O)c4ccccc4)C21)C3(C)C (stereo not drawn) + C#Cc1c(F)ccc2cc(O)cc(-c3ncc4c(N5CC6CCC(C5)N6)nc(OCC56CCCN5CC(F)C6)nc4c3F)c12,IC50,second compound 0.0316 µM,< 31.6 nM
same,IC50,second compound 0.1 µM,< 31.6 nM
same,IC50,second compound 0.316 µM,< 31.6 nM
same,IC50,second compound 1 µM,< 31.6 nM
same,IC50,second compound 3.16 µM,< 31.6 nM
same,IC50,second compound 10 µM,< 31.6 nM
same,"viability, T/C",[1],12.5%
same,"viability, T/C",[2],12.5%
same,"viability, T/C",[3],13%
same,"viability, T/C",[4],12.7%
same,"viability, T/C",[5],18.7%
same,"viability, T/C",[6],23.6%
same,"viability, T/C",[7],11%
same,"viability, T/C",[8],10.2%
same,"viability, T/C",[9],14.2%
same,"viability, T/C",[10],14.4%
same,"viability, T/C",[11],19.8%
same,"viability, T/C",[12],16.9%
same,"viability, T/C",[13],13%
same,"viability, T/C",[14],13.3%
same,"viability, T/C",[15],17.1%
same,"viability, T/C",[16],14.9%
same,"viability, T/C",[17],15.4%
same,"viability, T/C",[18],14.4%
same,"viability, T/C",[19],11.2%
same,"viability, T/C",[20],13.9%
same,"viability, T/C",[21],12.4%
same,"viability, T/C",[22],16.5%
same,"viability, T/C",[23],14.7%
same,"viability, T/C",[24],26.3%
same,"viability, T/C",[25],11.3%
same,"viability, T/C",[26],9.14%
same,"viability, T/C",[27],12%
same,"viability, T/C",[28],15.7%
same,"viability, T/C",[29],19.1%
same,"viability, T/C",[30],16.1%
same,"viability, T/C",[31],12.9%
same,"viability, T/C",[32],11.2%
same,"viability, T/C",[33],10.8%
same,"viability, T/C",[34],14.3%
same,"viability, T/C",[35],14.7%
same,"viability, T/C",[36],19.1%
CC(Nc1ccc2c(c1)OCCn1cc(N3C(=O)OCC3C(F)F)nc1-2)C(N)=O (stereo not drawn) + C#Cc1c(F)ccc2cc(O)cc(-c3ncc4c(N5CC6CCC(C5)N6)nc(OCC56CCCN5CC(F)C6)nc4c3F)c12,IC50,second compound 0.0316 µM,> 10000 nM
same,IC50,second compound 0.1 µM,> 10000 nM
same,IC50,second compound 0.316 µM,9820 nM
same,IC50,second compound 1 µM,> 10000 nM
same,IC50,second compound 3.16 µM,1610 nM
same,IC50,second compound 10 µM,< 31.6 nM
same,"viability, T/C",[1],95.9%
same,"viability, T/C",[2],93.4%
same,"viability, T/C",[3],85.4%
same,"viability, T/C",[4],80.1%
same,"viability, T/C",[5],74.5%
same,"viability, T/C",[6],51.9%
same,"viability, T/C",[7],101%
same,"viability, T/C",[8],90.3%
same,"viability, T/C",[9],82.4%
same,"viability, T/C",[10],91.2%
same,"viability, T/C",[11],77.9%
same,"viability, T/C",[12],57.2%
same,"viability, T/C",[13],92.7%
same,"viability, T/C",[14],93.5%
same,"viability, T/C",[15],91.5%
same,"viability, T/C",[16],85.7%
same,"viability, T/C",[17],81.7%
same,"viability, T/C",[18],48.8%
same,"viability, T/C",[19],83.4%
same,"viability, T/C",[20],85.8%
same,"viability, T/C",[21],90.7%
same,"viability, T/C",[22],72.6%
same,"viability, T/C",[23],69.1%
same,"viability, T/C",[24],51.5%
same,"viability, T/C",[25],73.4%
same,"viability, T/C",[26],56.2%
same,"viability, T/C",[27],54.5%
same,"viability, T/C",[28],60.5%
same,"viability, T/C",[29],46.8%
same,"viability, T/C",[30],32.8%
same,"viability, T/C",[31],33.8%
same,"viability, T/C",[32],31%
same,"viability, T/C",[33],24.6%
same,"viability, T/C",[34],25.9%
same,"viability, T/C",[35],21%
same,"viability, T/C",[36],18.6%
O=C(c1ccc(F)c(F)c1Nc1ccc(I)cc1F)N1CC(O)([C@@H]2CCCCN2)C1 + C#Cc1c(F)ccc2cc(O)cc(-c3ncc4c(N5CC6CCC(C5)N6)nc(OCC56CCCN5CC(F)C6)nc4c3F)c12,IC50,second compound 0.0316 µM,31.5 nM
same,IC50,second compound 0.1 µM,33.7 nM
same,IC50,second compound 0.316 µM,37.5 nM
same,IC50,second compound 1 µM,26.3 nM
same,IC50,second compound 3.16 µM,8.98 nM
same,IC50,second compound 10 µM,< 3.16 nM
same,"viability, T/C","second compound 0.0316 µM, first compound 0.00316 µM",90.3%
same,"viability, T/C","second compound 0.0316 µM, first compound 0.01 µM",65.9%
same,"viability, T/C",[1],49.5%
same,"viability, T/C",[2],31.9%
same,"viability, T/C",[3],28.1%
same,"viability, T/C",[4],8.9%
same,"viability, T/C","second compound 0.1 µM, first compound 0.00316 µM",80.8%
same,"viability, T/C","second compound 0.1 µM, first compound 0.01 µM",68.9%
same,"viability, T/C",[7],50%
same,"viability, T/C",[8],32.3%
same,"viability, T/C",[9],26%
same,"viability, T/C",[10],9.17%
same,"viability, T/C","second compound 0.316 µM, first compound 0.00316 µM",91.1%
same,"viability, T/C","second compound 0.316 µM, first compound 0.01 µM",73%
same,"viability, T/C",[13],46.6%
same,"viability, T/C",[14],39.4%
same,"viability, T/C",[15],25.4%
same,"viability, T/C",[16],9%
same,"viability, T/C","second compound 1 µM, first compound 0.00316 µM",87.4%
same,"viability, T/C","second compound 1 µM, first compound 0.01 µM",62%
same,"viability, T/C",[19],48.6%
same,"viability, T/C",[20],31.1%
same,"viability, T/C",[21],22.5%
same,"viability, T/C",[22],8.96%
same,"viability, T/C","second compound 3.16 µM, first compound 0.00316 µM",58.8%
same,"viability, T/C","second compound 3.16 µM, first compound 0.01 µM",50%
same,"viability, T/C",[25],38.7%
same,"viability, T/C",[26],24%
same,"viability, T/C",[27],19.9%
same,"viability, T/C",[28],5.77%
same,"viability, T/C","second compound 10 µM, first compound 0.00316 µM",45.1%
same,"viability, T/C","second compound 10 µM, first compound 0.01 µM",29.8%
same,"viability, T/C",[31],26.5%
same,"viability, T/C",[32],17.2%
same,"viability, T/C",[33],11.2%
same,"viability, T/C",[34],3.65%
C=CC(=O)N1CCN(c2nc(OCC3CCCN3C)nc3c(F)c(-c4nc(N)cc(C)c4C(F)(F)F)c(Cl)cc23)C(C)C1 (stereo not drawn) + CCn1c(-c2cc(N3CCN(C)CC3)cnc2C(C)OC)c2c3cc(ccc31)-c1csc(n1)CC(NC(=O)C1CC1C)C(=O)N1CCCC(N1)C(=O)OCC(C)(C)C2,IC50,second compound 0.000949 µM,< 3.16 nM
same,IC50,second compound 0.003 µM,< 3.16 nM
same,IC50,second compound 0.00949 µM,< 3.16 nM
same,IC50,second compound 0.03 µM,< 3.16 nM
same,IC50,second compound 0.0949 µM,< 3.16 nM
same,IC50,second compound 0.3 µM,< 3.16 nM
same,"viability, T/C","second compound 0.000949 µM, first compound 0.00316 µM",32.9%
same,"viability, T/C","second compound 0.000949 µM, first compound 0.01 µM",35.6%
same,"viability, T/C","second compound 0.000949 µM, first compound 0.0316 µM",36.7%
same,"viability, T/C","second compound 0.000949 µM, first compound 0.1 µM",29.5%
same,"viability, T/C","second compound 0.000949 µM, first compound 0.316 µM",30.1%
same,"viability, T/C","second compound 0.000949 µM, first compound 1 µM",38.9%
same,"viability, T/C","second compound 0.003 µM, first compound 0.00316 µM",23.4%
same,"viability, T/C","second compound 0.003 µM, first compound 0.01 µM",21.4%
same,"viability, T/C","second compound 0.003 µM, first compound 0.0316 µM",21.2%
same,"viability, T/C","second compound 0.003 µM, first compound 0.1 µM",20.9%
same,"viability, T/C","second compound 0.003 µM, first compound 0.316 µM",20.9%
same,"viability, T/C","second compound 0.003 µM, first compound 1 µM",19.6%
same,"viability, T/C","second compound 0.00949 µM, first compound 0.00316 µM",17.3%
same,"viability, T/C","second compound 0.00949 µM, first compound 0.01 µM",18.3%
same,"viability, T/C","second compound 0.00949 µM, first compound 0.0316 µM",15.8%
same,"viability, T/C","second compound 0.00949 µM, first compound 0.1 µM",15.6%
same,"viability, T/C","second compound 0.00949 µM, first compound 0.316 µM",18%
same,"viability, T/C","second compound 0.00949 µM, first compound 1 µM",15.2%
same,"viability, T/C","second compound 0.03 µM, first compound 0.00316 µM",12.1%
same,"viability, T/C","second compound 0.03 µM, first compound 0.01 µM",11.4%
same,"viability, T/C","second compound 0.03 µM, first compound 0.0316 µM",12.5%
same,"viability, T/C","second compound 0.03 µM, first compound 0.1 µM",12.9%
same,"viability, T/C","second compound 0.03 µM, first compound 0.316 µM",12.8%
same,"viability, T/C","second compound 0.03 µM, first compound 1 µM",15.7%
same,"viability, T/C","second compound 0.0949 µM, first compound 0.00316 µM",10%
same,"viability, T/C","second compound 0.0949 µM, first compound 0.01 µM",12.6%
same,"viability, T/C","second compound 0.0949 µM, first compound 0.0316 µM",11.2%
same,"viability, T/C","second compound 0.0949 µM, first compound 0.1 µM",9.36%
same,"viability, T/C","second compound 0.0949 µM, first compound 0.316 µM",9.84%
same,"viability, T/C","second compound 0.0949 µM, first compound 1 µM",12.7%
same,"viability, T/C","second compound 0.3 µM, first compound 0.00316 µM",10.8%
same,"viability, T/C","second compound 0.3 µM, first compound 0.01 µM",9.38%
same,"viability, T/C","second compound 0.3 µM, first compound 0.0316 µM",9%
same,"viability, T/C","second compound 0.3 µM, first compound 0.1 µM",8.35%
same,"viability, T/C","second compound 0.3 µM, first compound 0.316 µM",10.7%
same,"viability, T/C","second compound 0.3 µM, first compound 1 µM",11%
